Measured values as given in patent US20230234941A1, “Salts of Compound and Pharmaceutical Compositions Containing the Same” (Shenzhen Forward Pharmaceuticals Co., Limited., priority 2020, published 2023).
Converted amounts (≈) assume the structure as drawn. Where two headings read alike, the source gives them in different places.

What was measured:
Assay type in all cases: physicochemical
[1] = Chemical and physical stability of the salts at the end of the preparation
From the text: It is crucial for drug development whether the salts obtained as above have chemical and physical stability at the end of the preparation. The chemical and physical stability of the salts at the end of the preparation includes: […]

[2] = Solid storage stability test; conditions: for Original morphology / Original purity: original solid before storage; for chemical and physical stability after storage (summary): solid/25° C./60% RH/open/1 week and/or solid/60° C./closed container/1 week
Protocol: Each amorphous salt solid was weighed (two 2 mg samples were weighed for purity testing after solid storage stability study, and one 10 mg sample was weighed for XRPD testing after solid storage stability study) and placed in a glass vial. In a 25° C./60% RH solid storage stability test, the amorphous salt solid was placed in a 25° C./60% RH constant temperature and humidity chamber, and placed in the dark for 1 week (i.e. “solid/25° C./60% RH/open/1 week”), and in a 60° C. solid storage stability test, the amorphous salt solid was sealed in an oven at 60° C. and heated for 1 week in the dark (i.e. “solid/60° C./closed container/l week”). Then the sample was taken out for purity testing, crystal form detection and appearance observation, respectively.

[3] = Solid solubility test (2 h and 24 h); conditions: for XRPD measured at 2 h: state of sample / solid fraction; for XRPD measured at 24 h: 24 h test, state of sample; for solubility at 2 h: 37 °C, thermodynamic from solid
Protocol: samples were weighed for each amorphous salt solid (equivalent to 20 mg of free base), and 10 mL of the following solvents were respectively added: 0.1N HCl solution (pH 1.0), 50 mM phosphate buffer (pH 4.5), FeSSIF-V1 (pH 5.0), FaSSIF-V1 (pH 6.5) and SGF (pH 2.0), […] The suspension was then centrifuged at 37° C., the supernatant was measured for solubility by HPLC, and the solid fraction was measured for XRPD. The target solubility was at least 2 mg (based on free base)/mL.

[4] = listed as amorphous 1 eq. mesylate salt
[5] = Test BS1: solid/25° C./60% RH/open/1 week
[6] = solid/60° C./closed container/1 week (Test BS1)
[7] = FaSSIF-V1 (pH 6.5) (Test ES4, partly printed ES1)
[8] = FaSSIF-V1 (pH 6.5) (Test ES4, partly printed ES1), 37° C., based on free base
[9] = Test ES1: 0.1N HCl solution (pH 1.0)
[10] = Test ES1: 0.1N HCl solution (pH 1.0), 37° C., based on free base
[11] = Test ES2: 50 mM phosphate buffer (pH 4.5)
[12] = Test ES2: 50 mM phosphate buffer (pH 4.5), 37° C., based on free base
[13] = Test ES3: FeSSIF-V1 (pH 5.0), 37° C., based on free base
[14] = Test ES5: SGF (pH 2.0), 37° C., based on free base
[15] = listed as amorphous 2 eq. mesylate salt
[16] = listed as amorphous 1 eq. besylate salt
[17] = listed as amorphous 2 eq. besylate salt

SMILES	Purity [2, 5] [%]	Original morphology [2]	Original purity [2] [%]	Purity [2, 6] [%]	pH measured at 2 h [3, 7]	Solubility measured at 2 h [3, 8] [µg/mL]	XRPD measured at 2 h [3, 7]	pH measured at 2 h [3, 9]	Solubility measured at 2 h [3, 10] [µg/mL]	XRPD measured at 2 h [3, 9]	pH measured at 2 h [3, 11]	Solubility measured at 2 h [3, 12] [µg/mL]	XRPD measured at 2 h [3, 11]	pH measured at 2 h ([3]; Test ES3: FeSSIF-V1 (pH 5.0))	Solubility measured at 2 h [3, 13] [µg/mL]	XRPD measured at 2 h ([3]; Test ES3: FeSSIF-V1 (pH 5.0))	pH measured at 2 h ([3]; Test ES5: SGF (pH 2.0))	Solubility measured at 2 h [3, 14] [µg/mL]	XRPD measured at 2 h ([3]; Test ES5: SGF (pH 2.0))	further results
C=CC(=O)Nc1cc(Nc2ncnc(-c3cn(C)c4ccccc34)n2)c(OC)cc1N(C)CCN(C)C [Example 4]	99.8	amorphous	99.9	99.9	(6.5)	>2000	clear solution	(0.7)	>2000	clear solution	(4.5)	>2000	clear solution	(4.8)	>2000	clear solution	(2.0)	>2000	clear solution	chemical and physical stability at the end of the preparation ([1]; listed as 1 eq. mesylate salt): chemically and physically stable; chemical and physical stability at the end of the preparation [1, 4]: chemically and physically stable; chemical and physical stability after storage (summary) ([2]; listed as 1 eq. mesylate salt): chemically and physically stable; chemical and physical stability after storage (summary) [2, 4]: chemically and physically stable; physical and chemical stability under storage (in words) ([2]; solid/25° C./60% RH/open/1 week, listed as amorphous 1 eq. mesylate salt): good physical and chemical stability; physical and chemical stability under storage (in words) ([2]; solid/60° C./closed container/1 week, listed as amorphous 1 eq. mesylate salt): good physical and chemical stability; Solubility measured at 24 h ([3]; Test ES3: FeSSIF-V1 (pH 5.0)): >2000 µg/mL; pH measured at 24 h ([3]; Test ES3: FeSSIF-V1 (pH 5.0)): (5.0); XRPD measured at 24 h ([3]; Test ES3: FeSSIF-V1 (pH 5.0)): clear solution; Solubility measured at 24 h ([3]; Test ES4: FaSSIF-V1 (pH 6.5)): >2000 µg/mL; pH measured at 24 h ([3]; Test ES4: FaSSIF-V1 (pH 6.5)): (6.6); XRPD measured at 24 h ([3]; Test ES4: FaSSIF-V1 (pH 6.5)): clear solution
C=CC(=O)Nc1cc(Nc2ncnc(-c3cn(C)c4ccccc34)n2)c(OC)cc1N(C)CCN(C)C [Example 5]	99.9	amorphous	99.9	99.8	(6.2)	>2000	clear solution	(0.7)	>2000	clear solution	(4.2)	>2000	clear solution	(4.8)	>2000	clear solution	(1.8)	>2000	clear solution	chemical and physical stability at the end of the preparation ([1]; listed as 2 eq. mesylate salt): chemically and physically stable; chemical and physical stability at the end of the preparation [1, 15]: chemically and physically stable; chemical and physical stability after storage (summary) ([2]; listed as 2 eq. mesylate salt): physically unstable; chemical and physical stability after storage (summary) [2, 15]: physically unstable; physical and chemical stability under storage (in words) ([2]; solid/25° C./60% RH/open/1 week, listed as amorphous 2 eq. mesylate salt): transformed from amorphous to a low crystallinity and showed a certain hygroscopicity (agglomeration); physical and chemical stability under storage (in words) ([2]; solid/60° C./closed container/1 week, listed as amorphous 2 eq. mesylate salt): a certain hygroscopicity (partial agglomeration)
C=CC(=O)Nc1cc(Nc2ncnc(-c3cn(C)c4ccccc34)n2)c(OC)cc1N(C)CCN(C)C [Example 6]	98.2	amorphous	99.7	99.6	(6.5)	>2000	clear solution	(0.7)	>2000	clear solution	(4.5)	>2000	clear solution	(4.8)	>2000	clear solution	(2.1)	>2000	clear solution	chemical and physical stability at the end of the preparation ([1]; listed as 1 eq. besylate salt): chemically and physically stable; chemical and physical stability at the end of the preparation [1, 16]: chemically and physically stable; decrease in purity ([2]; solid/25° C./60% RH/open/1 week): about 2%; chemical and physical stability after storage (summary) ([2]; listed as 1 eq. besylate salt): chemically unstable; chemical and physical stability after storage (summary) [2, 16]: chemically unstable; physical and chemical stability under storage (in words) ([2]; solid/60° C./closed container/1 week, listed as amorphous 1 eq. besylate salt): good physical and chemical stability
C=CC(=O)Nc1cc(Nc2ncnc(-c3cn(C)c4ccccc34)n2)c(OC)cc1N(C)CCN(C)C [Example 7]	99.6	amorphous	99.6	99.4	(6.1)	>2000	clear solution	(0.8)	1800 (≈ 3.6 mM)		(4.2)	>2000	clear solution	L(4.8)	>2000	clear solution	(1.7)	>2000	clear solution	chemical and physical stability at the end of the preparation ([1]; listed as 2 eq. besylate salt): chemically and physically stable; chemical and physical stability at the end of the preparation [1, 17]: chemically and physically stable; chemical and physical stability after storage (summary) ([2]; listed as 2 eq. besylate salt): physically unstable; chemical and physical stability after storage (summary) [2, 17]: physically unstable; physical and chemical stability under storage (in words) ([2]; solid/25° C./60% RH/open/1 week, listed as amorphous 2 eq. besylate salt): slight color change and showed significant hygroscopicity (caking and fusion to a glassy state); physical and chemical stability under storage (in words) ([2]; solid/60° C./closed container/1 week, listed as amorphous 2 eq. besylate salt): good physical and chemical stability; solubility at 2 h ([3]; 0.1N HCl solution, pH 1, simulated gastric fluid, Test ES1: 0.1N HCl solution (pH 1.0), 37° C., based on free base, read-out: Solubility measured at 2 h): < 2000 µg/mL; solubility at 2 h ([3]; not achieved in some solvents / greater in various solvents, read-out: solubility in solvents that mimic physiological conditions): < 2000 µg/mL
